Melting point data for 89 molecules are collected here from a melting point compilation (Tetko et al.; mined from patent text by program, amines drawn as free bases though some values may be those of a salt).

On to `CCCc1nc2c(N)nc3cc(Br)ccc3c2n1CC1CCN(C(=O)OC(C)(C)C)CC1`, for which the melting point was 134 to 137 °C.
`CN1CC=C(c2cnn3c(-c4cccc(NC(=O)c5cccc(C(F)(F)F)c5)c4)ccnc23)CC1`: the melting point lay within 163 to 165 °C.
Turning to `CC(=O)OC(CF)c1ccccc1S(=O)(=O)NC(C)(C)C` (centres undefined), the melting point lay in the range of 118 to 119 °C.
Molecule `COc1ccc(/C(=C\C=C\C(=O)Oc2ccc([N+](=O)[O-])cc2)c2ccccc2OC)cc1` returned a melting point of 134 to 135 °C.
As for `NCCCOc1ccc(-c2ncc3c(=O)[nH][nH]c(=O)c3c2O)cc1`, the melting point was > 300 °C.
`CCOc1cccc(-c2nc(=O)c3ccccc3s2)n1` registered a melting point of 180 °C.
In turn, `CCc1ccc(OCCCCCCN2CCN(c3nccs3)CC2)cc1` had a melting point of 21 to 23 °C.
In the case of `CCCOc1ccc(S(=O)(=O)C(C)C)cc1-c1nc2c(CC)nn(C[C@@H]3CCCN3C(=O)OC(C)(C)C)c2c(=O)[nH]1`, the melting point is 141 to 143 °C.
The molecule `CCN(CC)C(=O)c1cccc(F)c1[Si](C)(C)C(C)(C)C` had a melting point of 50 to 51 °C.
`CC(Br)c1ccc(-c2onc3ccccc23)cc1` (centres undefined): the melting point is 106 to 108 °C.
For the molecule `O=C(O)C1=CC2=CCCC=C2Sc2c1ccc1c2CCC1`, the melting point worked out at 77 °C.
The molecule `CC(C)n1c(=O)c(=O)[nH]c2ccccc21` showed a melting point of 227 to 228 °C.
In the case of `O=c1ccoc2c1ccc1ncccc12` it was 146 to 147 °C; in that of `Cc1nc(N)nc(N)c1-c1cc(Br)ccc1Cl`, 212 to 216 °C; in that of `CC(=O)N1c2ccc(C#N)cc2C(Nc2ccc(Cl)cc2)CC1C` (centres undefined), 212 to 213 °C.
As for `COc1ccc(NC(=NC#N)N2CCn3c(c(C(N)=O)c(Cl)c3-c3ccccc3)C2)cc1`, the melting point was determined as 170 °C.
In the case of `CN(C)S(=O)(=O)c1ccc(C(F)(F)F)cc1N` it was 65 to 70 °C.
Molecule `COc1cc2ncnc(N3c4ccccc4CC3C)c2cc1OC` (centres undefined) showed a melting point of 154 to 156 °C.
Molecule `CC(=O)Oc1ccc(C(C)(c2ccc(OC(C)=O)cc2)c2ccc(OC(C)=O)cc2)cc1` yielded a melting point of 169 °C.
In the case of `CC(=O)NCC1CN(c2ccc(N3CCN(c4nnc(C(N)=O)s4)C(F)C3)cc2)C(=O)O1` (centres undefined) it was 230 to 232 °C; in that of `Cc1[nH]cc2c(=O)n(-c3ccc(Cl)cc3)nc-2c1-c1cccc(I)c1`, 306 to 312 °C; in that of `CCCn1c(=O)c2c(N)n[nH]c2n(Cc2ccccc2)c1=O`, 214 to 215 °C.
The molecule `N#CN1c2ccccc2CC(Cl)c2ccccc21` (centres undefined) gave a melting point of 139 to 140 °C.
In turn, `CC(C)(C)OC(=O)Nc1ccc2nc(-c3cccnc3)nn2c1` returned a melting point of 296 °C.
`Nc1nc(Cl)cc(Oc2ccc3c(C(=O)Nc4cccc(C(F)(F)F)c4)cccc3c2)n1` showed a melting point of 234 to 236 °C.
Molecule `CCn1c2c(c3ccc(OC)cc31)CN(C(=O)c1ccc(C)c3ccccc13)CC2` yielded a melting point of 209 to 210 °C.
`COC(=O)C(CN(c1ccccc1)c1ccccn1)N(C(=O)OC(C)(C)C)C(=O)OC(C)(C)C` (centres undefined): the melting point was 103 °C.
Take `COc1cc(-n2nc(C#N)cc2-c2ccc(S(C)(=O)=O)cc2)ccc1Cl`: the melting point lay in the range of 203 to 205 °C.
For the molecule `CCP(=S)(CC)OC(=O)/C=N\OCc1csc(N)n1`, the melting point was 87 to 88 °C.
Turning to `CN1C(=O)C(C(=O)Nc2ccc(Oc3ncc(Cl)cc3Cl)cc2)C(=O)N(C)C1=O`, the melting point is 234 to 235 °C.
Regarding `Cc1nc2c(-c3cccc(N4CCN(C)CC4)c3)cnn2c(N)c1-c1ccc(F)cc1`, the melting point fell in the range of 204 to 206 °C.
The figure for `O=C(O)C1SC(C23CC4CC(CC(C4)C2)C3)=NN1C(=O)CCS` (centres undefined) is 183 to 184 °C; for `CCc1nc(-c2ccc(OCCCc3cccnc3)cc2)no1` it is 63 to 64 °C.
Consider `COc1ccc([N+](=O)[O-])nc1C`, for which the melting point fell in the range of 96 to 98 °C.
Molecule `CCOC(=O)N1c2cc(OC)c(OC)cc2C(=O)C(=CNC)C1C` (centres undefined) returned a melting point of 154 to 156 °C.
The figure for `O=c1c(Br)cc(-c2ccncn2)cn1Cc1ccccc1` is 189 to 192 °C; for `CNC(C)Cc1ccc(CCCC(=O)O)cc1` (centres undefined) it is 170 to 172 °C; for `CC(C)Oc1ncc(OC(=O)C2(C)CC2)cc1Cl` it is 116 to 117 °C.
For `O=C(NCCN1CCCCC1)Nc1ccc(-c2cnc(COCc3cc4ccccc4o3)o2)cc1`, the melting point was 102 to 104 °C.
`CC(C)c1ccc(C(=O)C2CCN(Cc3ccccc3)CC2)cc1`: the melting point lay in the range of 76 to 77 °C.
`Cc1ccc(-c2cc(C(=O)O)nn2Cc2ccc(F)cc2)cc1C` yielded a melting point of 141 °C.
Molecule `CCCCc1nc2c(N)nc3ccc(OCCC4CCNCC4)cc3c2n1C` registered a melting point of 210 to 212 °C.
`O=C(Nc1ccc(Cl)cc1)c1cccc(/C=C/c2ccccn2)c1`: the melting point worked out at 213 °C.
Molecule `Cc1nn(CCNS(C)(=O)=O)c(-c2ccc(F)cc2)c1-c1ccc2c(c1)NC(=O)CO2` gave a melting point of 220 to 221 °C.
The figure for `O=C1CCC(c2ccccc2)(c2ccccc2)[C@@H]2CN(C(=O)Cc3c(Cl)cccc3Cl)C[C@H]12` (racemic) is 201 °C; for `COc1ccccc1Oc1c(Cl)nc(-c2cccc(OCc3ccccc3)c2)nc1Cl` it is 127 to 132 °C.
With `CCCCC1(N(C)C)CC=C(c2[nH]c3ccccc3c2CCNC(=O)CC(C)(C)C)CC1` (centres undefined), the melting point lay in the range of 139 to 142 °C.
For the molecule `CCCCc1ccc(-c2csc(-c3ccc(C(=O)O)cc3)n2)cc1`, the melting point lay within 263 to 265 °C.
With `CCCN1CCCC(c2ccc(OC)c3c2CC(=O)N3)C1` (centres undefined), the melting point was 120 °C.
Consider `COc1ccc(-c2c(Cl)c(CN3CCN(C(C)=O)CC3)nc3sc4c(c23)CCN(Cc2ccccc2)C4)cc1OC`, for which the melting point was 183 to 184 °C.
The molecule `Cc1sccc1C1=C(c2ccsc2C)C(F)(F)C(F)(F)C1(F)F` came in with a melting point of 73.6 °C.
On to `BrCC=Cc1ccc(-c2cnc(CSCCOc3ccccc3)o2)cc1`, for which the melting point was 88 to 91 °C.
In the case of `CCOC(=O)C1CCN(c2nc(COc3ccc(CCl)cc3OC)c(C)s2)CC1` it was 98 to 99 °C; in that of `CCCOc1ccc(S(=O)(=O)CCC)cc1C(N)=O`, 168 to 170 °C; in that of `Cc1nc(N2CCN(CC(C)C)C2=O)sc1C(=O)NCc1ccn(C)n1`, 158 to 161 °C.
The molecule `CCN1C(=O)Cc2cc3c(cc21)C(=O)c1ccccc1CO3` gave a melting point of 186 to 188 °C.
In the case of `O=C(O)c1cc(C(F)(F)F)ccc1Cl` it was 93 to 94 °C; in that of `CN1CC[C@@H]2CC(=O)c3cc(-c4ccccc4)ccc3[C@@H]2C1` (relative stereo), > 250 °C.
The figure for `FC(F)(F)Oc1ccc2nc(Cc3cn4ccsc4n3)[nH]c2c1` is 177 to 179 °C.
`COC(=O)C1(C(=O)O)CCc2cc(C3CCCCC3)c(Cl)cc21` (centres undefined) had a melting point of 139 to 142 °C.
Consider `CS(=O)(=O)c1ccc(-c2ccccc2[N+](=O)[O-])cc1`, for which the melting point worked out at 178 °C.
`CN1CCC[C@H]1Cn1nc(-c2c(-c3ccccc3)nn3ccccc23)ccc1=O`: the melting point lay within 114 to 117 °C.
The figure for `CSc1ccc(/C=C2/C(C)=C(C(C)N(O)C(N)=O)c3cc(F)ccc32)cc1` (centres undefined) is 150 to 152 °C; for `CC(=O)C(=Cc1ccc(C#N)cc1)C(=O)C1CC1` it is 83 to 85 °C; for `CCOC(=O)c1cc2ccc3c(c2cc1OCC)OC(n1cccc1)=C(C#N)C3c1cccc([N+](=O)[O-])c1` (centres undefined) it is 202 to 203 °C.
In the case of `O=C1CC2c3cc(F)ccc3CCN2C2CCCCC12` (centres undefined) it was 130 to 136 °C; in that of `CN(C(=O)c1ccccn1)c1cccc(F)c1`, 75 to 78 °C.
On to `CC(=O)OCC(C)C1CCC2C3CC=C4CC(OC(C)=O)CCC4(C)C3CCC12C` (centres undefined), for which the melting point lay within 125 to 127 °C.
`O=C(O)C=CC(=O)Oc1ccc(Nc2ccccc2)cc1` registered a melting point of 139 to 142 °C.
The molecule `COC(=O)C=Cc1cc2c(nc1C)C(=Cc1ccccc1)CCC2` displayed a melting point of 121 to 123 °C.
The figure for `N#Cc1ccc2c(c1)C(C(=O)O)c1ccccc1CO2` (centres undefined) is 215 to 217 °C; for `CC(C)(C)OC(=O)NC1COCCCC=CC2CC2(C(=O)NS(=O)(=O)C2CC2)NC(=O)C2CC(OC(=O)Nc3ccccc3Oc3ccccc3)CN2C1=O` (centres undefined) it is 151 to 153 °C; for `CC(C)c1nc(C(C)C)c(C(O)c2ccccc2)c(-c2ccc(F)cc2)c1CO` (centres undefined) it is 202 to 204 °C.
Take `O=C(Cl)N1CC(Sc2ccc(Cl)cc2)C1`: the melting point was 47 to 48 °C.
For `COc1cccc(Nc2ccnc(Nc3cc(OC)c(OC)c(OC)c3)n2)c1`, the melting point is 78 °C.
In turn, `CC(C)(CC(N)=O)C(Br)(Br)Br` showed a melting point of 109 to 111 °C.
As to `OC(c1cccc(Br)n1)(C(F)(F)F)C(F)(F)F`, the melting point was in the range of 67 to 69 °C.
With `FC(F)(F)c1cccc2nc3c4ccccc4c4ccccc4c3nc12`, the melting point is 195 to 196 °C.
The molecule `O=C(Nc1ccc(-n2nc(C(F)(F)F)cc2C2CC2)nc1)c1ccc2[nH]nnc2c1` returned a melting point of 236 to 238 °C.
On to `Cc1cncc(C)c1-c1c(C)cc(I)cc1C`, for which the melting point lay within 242 to 243 °C.
Take `CC(=O)OCc1cn(-c2ccccc2)nc1OCc1ccccc1`: the melting point was in the range of 74 to 75 °C.
Molecule `Clc1ccc(NC2CCC3(CCNCC3)CC2)cc1Cl` gave a melting point of 128 to 132 °C.
As for `CCCn1nc(O)c2cc(Cl)c(Cl)cc2c1=O`, the melting point worked out at 223 °C.
As to `O=C1CCN=C(c2ccccc2F)c2cc(Cl)ccc21`, the melting point lay within 107 to 109 °C.
The figure for `Cn1cc(C(=O)c2cccc(Cl)c2)cc1C(=O)O` is 214 °C.
Take `CNC(=O)n1c(=O)n(CCCN2CCN(C(c3ccccc3)c3ccccc3)CC2)c2ccccc21`: the melting point came to 153 °C.
Molecule `CCCn1nc2c(N)nc3ccccc3c2c1CC(C)(C)NC(=O)C(C)C` gave a melting point of 177 to 178 °C.
On to `CN1c2ccccc2-c2nc3ccc(/C=C/C(N)=O)cc3c3cccc1c23`, for which the melting point fell in the range of 284 to 286 °C.
Take `OC1Cc2ccc(C(F)(F)F)cc2Sc2ccc(F)cc21` (centres undefined): the melting point fell in the range of 73 to 75 °C.

A word on the melting point: it is the temperature of the solid-liquid transition.
